Assay results reported in the NIST ThermoML archive (doi:10.1016/j.jct.2018.12.021).
Numbers after ± are expanded uncertainties.

Assays:
[1] = for Normal melting temperature: Crystal, DTA
[2] = mn = molality of the nth substance listed, in mol/kg; details: 303.15 K, Ring tensiometer, m2 = 0

Normal melting temperature [1] | surface tension liquid-gas [2] | Compound | other results
67 ± 0.7 °C | – | CCCCCCCCCCCC[n+]1ccsc1.[Br-] [N-dodecylthiazolium bromide] | –
103.16 ± 0.7 °C | – | CCCCCCCCCCCC[n+]1cscc1C.[Br-] [N-dodecyl-4-methylthiazolium bromide] | –

The next lines start with the compound.

Compound | Normal melting temperature [1] | surface tension liquid-gas [2] | other results
O [water] | – | – | surface tension liquid-gas ([1]; 303.15 K, Liquid, Ring tensiometer): 71.14 ± 2.3 mN/m
O [water] + CCCCCCCCCCCC[n+]1cscc1C.[Br-] | – | 71.14 ± 2.3 mN/m | –
O [water] + CCCCCCCCCCCC[n+]1ccsc1.[Br-] | – | 71.14 ± 2.3 mN/m | –
